pIC50: −log10 of the molar value.
Molecular target: T1, human full-length HSP90 (Homo sapiens, UniProt P08238)
T1 construct: E. coli expressed human full-length HSP90 protein; made in house; host or cells: E. coli
Assay: Fluorescence polarization assay (competitive displacement of fluorescein-labelled probe VER00051001-FAM from HSP90)
Assay type: binding
Settings: activity range in the fluorescence polarization assay; E. coli expressed human full-length HSP90 200 nM, probe 80 nM
Description: Fluorescence Polarization Assay
Fluorescence polarization {also known as fluorescence anisotropy} measures the rotation of a fluorescing species in solution, where the larger molecule the more polarized the fluorescence emission. When the fluorophore is excited with polarized light, the emitted light is also polarized. The molecular size is proportional to the polarization of the fluorescence emission.
The fluoroscein-labelled probe-VER00051001-FAM-
binds to HSP90 {full-length human, full-length yeast or N-terminal domain HSP90} and the anisotropy {rotation of the probe:protein complex} is measured.
Test compound is added to the assay plate, left to equilibrate and the anisotropy measured again. Any change in anisotropy is due to competitive binding of compound to HSP90, thereby releasing probe.
Chemicals are of the highest purity commercially available and all aqueous solutions are made up in AR water. • 1) Costar 96-well black assay plate #3915 • 2) Assay buffer of (a) 100 mM Tris pH7.4; (b) 20 mM KCl; (c) 6 mM MgCl2. Stored at room temperature. • 3) BSA (bovine serum albumen) 10 mg/ml (New England Biolabs # B9001S) • 4) 20 mM probe in 100% DMSO stock concentration. Stored in the dark at RT. Working concentration is 200 nM diluted in AR water and stored at 4° C. Final concentration in assay 80 nM. • 5) E. coli expressed human full-length HSP90 protein, purified >95% (see, e.g., Panaretou et al., 1998) and stored in 50 μL aliquots at −80° C.
• 1) Add 100 μl 1× buffer to wells 11A and 12A(═FPBLNK) • 2) Prepare assay mix—all reagents are kept on ice with a lid on the bucket as the probe is light-sensitive.
• 3) Aliquot 100 μl assay mix to all other wells • 4) Seal plate and leave in dark at room temp for 20 minutes to equilibrate Compound Dilution Plate—1×3 dilution series • 1) In a clear 96-well v-bottom plate—{# VWR 007/008/257} add 10 μl 100% DMSO to wells B1 to H11 • 2) To wells A1 to A11 add 17.5 μl 100% DMSO • 3) Add 2.5 μl cpd to A1. This gives 2.5 mM {50×} stock cpd—assuming cpds 20 mM. • 4) Repeat for wells A2 to A10. Control in columns 11 and 12. • 5) Transfer 5 μl from row A to row B- not column 12. Mix well. • 6) Transfer 5 μl from row B to row C. […] In column 11 {provides standard curve} only add compound B11-H11. Add 2 μl of 100 mM standard cpd to wells B12-H12 {is positive control} • 13) The Z′ factor is calculated from zero controls and positive wells. It typically gives a value of 0.7-0.9.
The compounds tested in the above assay were assigned to one of two activity ranges, namely A=<10 μM; B=>10 μM, and those assignments are reported above.

T1 sequence (P08238 whole entry): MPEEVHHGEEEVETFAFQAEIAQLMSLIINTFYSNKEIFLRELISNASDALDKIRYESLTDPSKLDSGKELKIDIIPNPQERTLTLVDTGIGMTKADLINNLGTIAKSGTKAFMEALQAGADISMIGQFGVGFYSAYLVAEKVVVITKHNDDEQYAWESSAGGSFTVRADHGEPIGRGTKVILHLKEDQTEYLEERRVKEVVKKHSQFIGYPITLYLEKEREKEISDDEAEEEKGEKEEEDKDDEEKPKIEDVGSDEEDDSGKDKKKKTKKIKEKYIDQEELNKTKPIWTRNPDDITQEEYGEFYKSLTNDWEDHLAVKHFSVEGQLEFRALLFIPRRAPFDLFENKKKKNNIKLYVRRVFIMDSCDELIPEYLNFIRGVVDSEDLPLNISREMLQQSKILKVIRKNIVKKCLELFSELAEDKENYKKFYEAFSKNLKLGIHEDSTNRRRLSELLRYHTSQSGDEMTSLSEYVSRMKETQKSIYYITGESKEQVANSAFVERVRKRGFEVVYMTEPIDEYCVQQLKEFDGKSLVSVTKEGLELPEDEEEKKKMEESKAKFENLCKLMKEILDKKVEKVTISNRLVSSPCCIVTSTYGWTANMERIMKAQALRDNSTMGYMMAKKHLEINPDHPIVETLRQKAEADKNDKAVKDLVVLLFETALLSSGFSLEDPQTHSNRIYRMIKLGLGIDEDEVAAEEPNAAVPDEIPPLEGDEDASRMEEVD

pIC50 | SMILES
> 5.00 | Clc1ccc(-c2nc(Cl)nc3[nH]cnc23)c(Cl)c1 [Example 1, 2-Chloro-6-(2,4-dichloro-phenyl)-9H-purine]
> 5.00 | Clc1nc(-c2cc(OCc3ccccc3)c(Cl)cc2Cl)c2nc[nH]c2n1 [Example 2, 6-(5-Benzyloxy-2,4-dichloro-phenyl)-2-chloro-9H-purine]
> 5.00 | Cc1ccc(-c2nc(Cl)nc3[nH]cnc23)c(C)c1 [Example 3]
< 5.00 | Cc1ccc(-c2nc(Cl)nc3[nH]cnc23)c2ccccc12 [Example 4]
< 5.00 | Clc1nc(-c2ccc3c(c2)CCO3)c2nc[nH]c2n1 [Example 5]
> 5.00 | N#Cc1ccc(-c2nc(Cl)nc3[nH]cnc23)cc1 [Example 6]
> 5.00 | Cc1ccc(-c2nc(Cl)nc3[nH]cnc23)c(Cl)c1 [Example 8]
> 5.00 | Cc1cc(Cl)ccc1-c1nc(Cl)nc2[nH]cnc12 [Example 9]
> 5.00 | Cc1cc(F)ccc1-c1nc(Cl)nc2[nH]cnc12 [Example 10]
> 5.00 | Clc1nc(-c2ccccc2)c2nc[nH]c2n1 [Example 11]
> 5.00 | CSc1nc(-c2cc(OCc3ccccc3)c(Cl)cc2Cl)c2nc[nH]c2n1 [Example 12, 6-(5-benzyloxy-2,4-dichloro-phenyl)-2-methylsulfanyl-9H-purine]
> 5.00 | CSc1nc(-c2ccc(C#N)cc2)c2nc[nH]c2n1 [Example 13, 6-(4-cyano-phenyl)-2-methylsulfanyl-9H-purine]
> 5.00 | CSc1nc(-c2ccc(Cl)cc2Cl)c2nc[nH]c2n1 [Example 14, 6-(2,4-dichloro-phenyl)-2-methylsulfanyl-9H-purine]
> 5.00 | CSc1nc(-c2ccc(F)cc2C)c2nc[nH]c2n1 [Example 15, 6-(2-methyl-4-fluoro-phenyl)-2-methylsulfanyl-9H-purine]
> 5.00 | CCNC(=O)CSc1nc(-c2ccc(Cl)cc2Cl)c2nc[nH]c2n1 [Example 16]
< 5.00 | CSc1nc(-c2ccc3ccccc3c2)c2nc[nH]c2n1 [Example 17]
> 5.00 | Clc1ccc(-c2nc(Sc3nc[nH]n3)nc3[nH]cnc23)c(Cl)c1 [Example 18]
> 5.00 | CSc1nc(-c2ccc(Cl)cc2C)c2nc[nH]c2n1 [Example 19]

pIC50 | SMILES
> 5.00 | CCOC(=O)CSc1nc(-c2ccc(Cl)cc2Cl)c2nc[nH]c2n1 [Example 20]
< 5.00 | CCNC(=O)C(C)(C)Sc1nc(-c2ccc(Cl)cc2Cl)c2nc[nH]c2n1 [Example 21]
> 5.00 | CN(C)CCSc1nc(-c2ccc(Cl)cc2Cl)c2nc[nH]c2n1 [Example 22]
> 5.00 | COc1nc(-c2ccc(Cl)cc2Cl)c2nc[nH]c2n1 [Example 23, 6-(2,4-Dichloro-phenyl)-2-methoxy-9H-purine]
> 5.00 | CCN(CC)Cc1ccc(COc2cc(-c3nc(Cl)nc4[nH]cnc34)c(Cl)cc2Cl)cc1 [Example 24, {4-[2,4-Dichloro-5-(2-chloro-9H-purin-6-yl)-phenoxymethyl]-benzyl}-diethyl-amine]
< 5.00 | CS(=O)(=O)c1nc(-c2ccc(Cl)cc2Cl)c2nc[nH]c2n1 [Example 25, 6-(2,4-Dichloro-phenyl)-2-methanesulfonyl-7H-purine]
< 5.00 | C[S+]([O-])c1nc(-c2ccc(Cl)cc2Cl)c2nc[nH]c2n1 (stereo not drawn) [Example 26, 6-(2,4-Dichloro-phenyl)-2-methanesulfinyl-7H-purine]
> 5.00 | Cc1cc(Cl)c(-c2nc(Cl)nc3[nH]cnc23)cc1O [Example 27, 4-Chloro-5-(2-chloro-9H-puriny-6-yl)-2-methyl-phenol]
> 5.00 | CCN(CC)CCOc1cc(-c2nc(Cl)nc3[nH]cnc23)c(Cl)cc1C [Example 28, {2-[4-Chloro-5-(2-chloro-9H-purin-6-yl)-2-methyl-phenoxy]-ethyl}-diethyl-amine]
> 5.00 | CCN(CC)CCOc1cc(-c2nc(SC)nc3[nH]cnc23)c(Cl)cc1C [Example 29, {2-[4-Chloro-2-methyl-5-(2-methylsulfanyl-9H-purin-6-yl)-phenoxy]-ethyl}-diethyl-amine]
> 5.00 | CCNC(=O)CSc1nc(-c2cc(OCCN(CC)CC)c(C)cc2Cl)c2nc[nH]c2n1 [Example 30, 2-{6-[2-Chloro-5-(2-diethlamino-ethoxy)-4-methyl-phenyl]-9H-purin-2-ylsulfanyl}-N-ethyl Acetamide]
< 5.00 | CSc1nc(-c2ccc(C)cc2C)c2nc(Cl)[nH]c2n1 [Example 31, 8-Chloro-6-(2,4-dimethyl-phenyl)-2-methylsulfanyl-9H-purine]
< 5.00 | CSc1nc(-c2ccc(C)cc2C)c2nc(C)[nH]c2n1 [Example 32, 6-(2,4-Dimethyl-phenyl)-8-methyl-2-methylsulfanyl-9H-purine]
< 5.00 | CSc1nc(-c2ccc(C)cc2C)c2nc(C#N)[nH]c2n1 [Example 33, 6-(2,4-Dimethyl-phenyl)-2-methylsulfanyl-9H-purine-8-carbonitrile]
> 5.00 | CN(C)CCCOc1cc(-c2nc(Cl)nc3[nH]cnc23)c(Cl)cc1Cl [Example 34, {3-[2,4-Dichloro-5-(2-chloro-9H-purin-6-yl)-phenoxy]-propyl}-dimethyl-amine]
> 5.00 | CCN(CC)CCOc1cc(-c2nc(Cl)nc3[nH]cnc23)c(Cl)cc1Cl [Example 35, {2-[2,4-Dichloro-5-(2-chloro-9H-purin-6-yl)-phenoxy]-ethyl}-diethyl-amine]
> 5.00 | Clc1nc(-c2cc(OCCN3CCCC3)c(Cl)cc2Cl)c2nc[nH]c2n1 [Example 36, 2-Chloro-6-[2,4-dichloro-5-(2-pyrrolidin-1-yl-ethoxy)-phenyl]-9H-purine]
> 5.00 | O=C1CCCN1CCOc1cc(-c2nc(Cl)nc3[nH]cnc23)c(Cl)cc1Cl [Example 37, 1-{2-[2,4-Dichloro-5-(2-chloro-9H-purin-6-yl)-phenoxy]-ethyl}-pyrrolidin-2-one]
